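Five concentrations, 48 hours, 96-well plates. GI50 is the concentration that inhibits growth by half. TGI is the concentration that stops growth completely.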
Assays:
Assay in all cases: NCI-60 cell line screen, 48 h
786-0 renal = test system: 786-0 renal
A498 renal = test system: A498 renal
HOP-92 NSCLC = test system: HOP-92 NSCLC
K-562 leukemia = test system: K-562 leukemia
MCF7 breast = test system: MCF7 breast
NCI-H460 lung = test system: NCI-H460 lung
OVCAR-8 ovarian = test system: OVCAR-8 ovarian
SNB-75 CNS = test system: SNB-75 CNS
SR leukemia = test system: SR leukemia
U251 CNS = test system: U251 CNS

Compound: CCN(CC)CCNC(=O)c1ccc(C)c(OCc2ccccc2)c1[N+](=O)[O-]
- TGI (786-0 renal): > 74.6 µM
- TGI (A498 renal): > 82.8 µM
- TGI (HOP-92 NSCLC): 83.2 µM
- TGI (K-562 leukemia): 49.2 µM
- TGI (MCF7 breast): > 53.1 µM
- TGI (NCI-H460 lung): > 100 µM
- TGI (OVCAR-8 ovarian): > 100 µM
- TGI (SNB-75 CNS): 67.9 µM
- TGI (SR leukemia): 69.9 µM
- TGI (U251 CNS): > 84.1 µM

Compound: NC(=S)N/N=C/c1cc(-c2cccc(N)c2)ccn1
- GI50 (786-0 renal): 1.29 µM
- TGI (786-0 renal): 6.34 µM
- GI50 (A498 renal): 1.61 µM
- TGI (A498 renal): 19.1 µM
- GI50 (HOP-92 NSCLC): 0.314 µM
- TGI (HOP-92 NSCLC): 40 µM
- GI50 (K-562 leukemia): 0.541 µM
- TGI (K-562 leukemia): > 100 µM
- GI50 (MCF7 breast): 2 µM
- TGI (MCF7 breast): > 44.8 µM
- GI50 (NCI-H460 lung): 1.07 µM
- TGI (NCI-H460 lung): 7.27 µM
- GI50 (OVCAR-8 ovarian): 1.66 µM
- TGI (OVCAR-8 ovarian): > 67.9 µM
- GI50 (SNB-75 CNS): 2.15 µM
- TGI (SNB-75 CNS): > 100 µM
- GI50 (SR leukemia): 0.346 µM
- TGI (SR leukemia): > 27.9 µM
- GI50 (U251 CNS): 0.783 µM
- TGI (U251 CNS): > 38.8 µM

Compound: Cc1ncc([N+](=O)[O-])n1CCNS(=O)(=O)CCCn1ncnc1[N+](=O)[O-]
- TGI (786-0 renal): > 100 µM
- TGI (A498 renal): > 100 µM
- TGI (HOP-92 NSCLC): > 100 µM
- TGI (K-562 leukemia): > 100 µM
- TGI (MCF7 breast): > 100 µM
- TGI (NCI-H460 lung): > 100 µM
- TGI (OVCAR-8 ovarian): > 100 µM
- TGI (SNB-75 CNS): > 100 µM
- TGI (SR leukemia): > 100 µM
- TGI (U251 CNS): > 100 µM

Compound: O=C(OCC(OC(=O)c1ccccc1)C(OC(=O)c1ccccc1)C(OC(=O)c1ccccc1)c1cnn(-c2ccccc2)n1)c1ccccc1 (configuration not stated)
- TGI (786-0 renal): > 100 µM
- TGI (A498 renal): > 100 µM
- TGI (HOP-92 NSCLC): > 100 µM
- TGI (K-562 leukemia): > 100 µM
- TGI (MCF7 breast): > 100 µM
- TGI (NCI-H460 lung): > 100 µM
- TGI (OVCAR-8 ovarian): > 100 µM
- TGI (SR leukemia): > 100 µM

Compound: O=C(O)C12CC3(C(=O)O)CC(C(=O)O)(CC(C(=O)O)(C1)C3=O)C2=O
- TGI (786-0 renal): > 100 µM
- TGI (A498 renal): > 100 µM
- TGI (HOP-92 NSCLC): > 100 µM
- TGI (K-562 leukemia): > 100 µM
- TGI (MCF7 breast): > 100 µM
- TGI (NCI-H460 lung): > 100 µM
- TGI (OVCAR-8 ovarian): > 100 µM
- TGI (SNB-75 CNS): > 100 µM
- TGI (SR leukemia): > 100 µM
- TGI (U251 CNS): > 100 µM

Compound: O=C(NCc1ccc(S(=O)(=O)c2cc(F)cc(F)c2)cc1)c1ccc2nccn2c1
- GI50 (786-0 renal): 30.7 µM
- TGI (786-0 renal): > 100 µM
- GI50 (A498 renal): > 28.4 µM
- TGI (A498 renal): > 86.8 µM
- GI50 (HOP-92 NSCLC): 22.5 µM
- TGI (HOP-92 NSCLC): > 100 µM
- GI50 (K-562 leukemia): 0.0103 µM
- TGI (K-562 leukemia): > 100 µM
- GI50 (MCF7 breast): 8.69 µM
- TGI (MCF7 breast): > 100 µM
- GI50 (NCI-H460 lung): 0.514 µM
- TGI (NCI-H460 lung): > 100 µM
- GI50 (OVCAR-8 ovarian): < 0.01 µM
- TGI (OVCAR-8 ovarian): > 100 µM
- GI50 (SNB-75 CNS): 15.3 µM
- TGI (SNB-75 CNS): 45.8 µM
- TGI (SR leukemia): > 100 µM
- GI50 (U251 CNS): 6.01 µM
- TGI (U251 CNS): > 56.7 µM

Compound: Cn1cc(-c2ccc(-c3cncc(Cl)c3N3CCC4(CCNC4=O)CC3)cc2)cn1
- GI50 (786-0 renal): 14.6 µM
- TGI (786-0 renal): > 100 µM
- GI50 (A498 renal): 14.1 µM
- TGI (A498 renal): > 100 µM
- GI50 (HOP-92 NSCLC): > 100 µM
- TGI (HOP-92 NSCLC): > 100 µM
- GI50 (K-562 leukemia): 26.9 µM
- TGI (K-562 leukemia): > 100 µM
- GI50 (MCF7 breast): 38.5 µM
- TGI (MCF7 breast): > 100 µM
- GI50 (NCI-H460 lung): 69.1 µM
- TGI (NCI-H460 lung): > 100 µM
- GI50 (OVCAR-8 ovarian): 29.4 µM
- TGI (OVCAR-8 ovarian): > 100 µM
- GI50 (SNB-75 CNS): 34.8 µM
- TGI (SNB-75 CNS): > 100 µM
- GI50 (SR leukemia): 1.68 µM
- TGI (SR leukemia): 21.2 µM
- GI50 (U251 CNS): 51.3 µM
- TGI (U251 CNS): > 100 µM

Compound: COc1ccc2c(c1)C(C)Cc1c(ncnc1-n1cnc3cc(C)ccc31)N2C (configuration not stated)
- GI50 (786-0 renal): 0.0649 µM
- TGI (786-0 renal): 15 µM
- GI50 (A498 renal): 0.0255 µM
- TGI (A498 renal): 0.0889 µM
- GI50 (HOP-92 NSCLC): 0.329 µM
- TGI (HOP-92 NSCLC): 15.9 µM
- GI50 (K-562 leukemia): 0.0386 µM
- TGI (K-562 leukemia): 15.2 µM
- GI50 (MCF7 breast): 0.0379 µM
- TGI (MCF7 breast): 12.7 µM
- GI50 (NCI-H460 lung): 0.128 µM
- TGI (NCI-H460 lung): 10.3 µM
- GI50 (OVCAR-8 ovarian): 0.244 µM
- TGI (OVCAR-8 ovarian): 0.938 µM
- GI50 (SNB-75 CNS): 0.0529 µM
- TGI (SNB-75 CNS): 19.9 µM
- GI50 (SR leukemia): 0.0443 µM
- TGI (SR leukemia): 11.1 µM
- GI50 (U251 CNS): 0.148 µM
- TGI (U251 CNS): 11.6 µM
